Results from patent US8802164B2 (Oryza Oil & Fat Chemical Co., Ltd., priority 2003, dated 2014).
In brackets after ≈: the same amount, converted by molar mass.

Legend:
[1] = molecular target: α-glucosidase; assay: α-Glucosidase inhibitory activity; assay type: biochemical, rat; conditions: for IC50: rat small intestine acetone powder enzyme, 4-methylumbelliferyl-α-D-glucopyranoside 0.05 mM, 37° C., 30 minutes; for inhibitory activity of α-glucosidase (in words): rat small intestine enzyme, Chart 2
Method: The test method is herein described. First of all, mix the acetone powder of the rat small intestine with the pH7.0. 0.1M phosphate buffer solution (product of […] JAPAN K.K), which is approx. 10 times as much as the volume of the acetone powder, and obtain the enzyme liquid from the centrifuged supernatant. Use the 0.2 mM 4-methyl umbel […]-gluco-pyranoside ([…] JAPAN K.K) as a substrate. After dissolving each sample in the DMSO, prepare the two-fold dilution series with the 4% DMSO containing phosphate buffer solution. The diluted solution (50 μL/well) and buffered substrate (25 μL/well) are mixed in a microplate, and after preheating it at 37° C. for 10 minutes, add the enzyme liquid (25 μL/well) to induce the reaction at 37° C. for 30 minutes (final concentration of enzyme: 1 mg protein mL, final concentration of substrate: 0.05 mM). Then, add the 0.2M Na2CO3 (100 μL/well) to stop the reaction. Measure the fluorescence intensity (excitation wavelength: 366 nm, determined wavelength: […]) using a microplate reader.

[2] = Diet effect on weight gain and body fat accumulation, mice fed sample-mixed food for 13 days; assay type: in vivo; conditions: mice ddY, sample mixed in food; for effect on accumulation of epididymal fat and perinephric fat weight: 13 days, FIG. 2; for effect on the weight gain: free feeding 13 days, extract 0.5/1.0 wt %, caffeine 0.05/0.1 wt %, chlorogenic acid 0.15/0.3 wt %, FIG. 1
Method: The weight of each mouse was measured every other day during the feeding period, and the weight of the epididymal fat of each mouse on the last day of the feeding period. There was little difference in intake of the food among the control group (for only normal food given) and individual sample administration groups.

[3] = molecular target: T1, pancreatic lipase (Sus scrofa, UniProt P00591); assay: Pancreatic lipase inhibitory activity (in vitro); assay type: biochemical; conditions: swine pancreatic lipase 105.8 units/mL; FIG. 5
T1 construct: purchased SIGMA ADLRICH JAPAN K.K
T1 sequence (P00591 1-450): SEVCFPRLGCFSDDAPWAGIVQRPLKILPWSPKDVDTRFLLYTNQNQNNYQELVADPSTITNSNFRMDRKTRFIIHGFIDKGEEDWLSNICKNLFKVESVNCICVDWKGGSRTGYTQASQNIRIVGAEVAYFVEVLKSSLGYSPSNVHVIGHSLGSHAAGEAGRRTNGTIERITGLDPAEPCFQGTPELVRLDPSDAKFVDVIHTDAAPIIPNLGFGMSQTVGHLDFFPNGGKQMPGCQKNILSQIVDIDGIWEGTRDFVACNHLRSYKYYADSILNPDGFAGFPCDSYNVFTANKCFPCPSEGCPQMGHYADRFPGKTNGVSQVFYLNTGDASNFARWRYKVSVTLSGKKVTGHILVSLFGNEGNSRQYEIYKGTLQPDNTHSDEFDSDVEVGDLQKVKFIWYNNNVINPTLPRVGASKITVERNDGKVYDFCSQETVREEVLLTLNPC
Method: The lipase inhibitory activity was analyzed by using a pancreatic lipase (product of […] JAPAN K.K, final concentration 105.8 units/mL) derived from the swine and a lipase kit-s (Dainippon Pharmaceutical Co., Ltd.).

[4] = tested on: mouse adipose cell line (3T30L1); assay: Effect on fat accumulation and differentiation of 3T3-L1 adipocytes; assay type: cell-based; conditions: 3T3-L1 after differentiation induction, 6 days with sample; FIG. 6
Method: The test method is herein described. Cultivate the 3T30L1 adipose cell (5×10^4 cells/mL) in DMEM medium (high glucose) including fetal calf serum (10 wt %) for two days. Then, replace the medium with a different type of medium containing insulin ([…]), dexamethasone (0.25 μM) and isobutyl methyl xanthin (0.5 mM) for the differentiation induction. Two days later, replace the medium again with the different medium containing the samples and insulin (1 μg/mL), and cultivate them for six days replacing the medium every other day. After completing the cultivation, analyze the glycerol 3-phosphate dehydrogenase (GPDH) activity which is to be an indicator of the concentration of triglyceride in the cell and adipocyte differentiation.

[5] = Suppressive effect on fatty liver (hepatic triglyceride and total cholesterol); assay type: in vivo; conditions: mice, oral once a day for two weeks; FIG. 7
Excerpt: The test method is herein described. Keep the mice (ddY, male, 5-week-old) in the laboratory for one week. Then, divide them into four groups and orally administer the samples suspended in the gum […] %) once a day for two weeks. On the final day of the test, remove the livers from the non-food-derived mice, and measure the amount of liver triglyceride and total cholesterol contained therein by using the test kit of Wako Pure Chemical Industries Ltd. of Japan.

[6] = tested on: epididymal fat; assay: Lipolysis effect, glycerol release of epididymal fat (in vitro); assay type: cell-based, rats; conditions: rat epididymal fat, 37° C., three hours; extract at 1000 μg/mL; FIG. 8
Method: The test method is herein described. Remove the epididymal fat from male Wister rats, and incubate the fat in each sample solved in Medium 199 (medium culture) at a temperature of 37° C. for three hours. After completing the incubation, remove the fat and measure the amount of glycerol in the medium by using F-kit glycerol (product of Nippon Roche).

[7] = Hypotriglyceridemic action in blood of food-deprived mice; assay type: in vivo; conditions: 24-hour food-deprived mice, single oral dose, blood every hour; FIG. 9
Method: Then the effects on the blood triglyceride level are observed. The test method is herein described. First of all, take a blood sample from the veins of the 24-hour food-deprived mice (ddy. Male, 6-week-old). Half an hour later, orally apply each sample (10 mL./kg) suspended with the gum […] of 5 w/v % to the mice. Then, take a blood sample from the mice every one hour, and measure the blood triglyceride levels. Under the same condition, measure the blood triglyceride levels of the mice as a control, in which only gum […] orally administered.

[8] = Four-day weight gain test with existing dietetic materials (Chart 1); assay type: in vivo; conditions: mice, sample mixed in food
Method: Salacia extract can be obtained by extracting the salacia root with solvent. Evening primrose extract can also be obtained by extracting the evening primrose with solvent. As a test method, as shown in Chart 1, a four-day experiment was conducted with the mice (ddY, male, 5-week-old) to freely eat the food (CE-2, CLEA Japan, Inc.) mixed with the sample as indicated in Chart 1. The weight of each mouse was measured on the first day and on the final day of the experimental period.

Row | Compound | IC50 [1] [µg/mL] | inhibitory activity of α-glucosidase (in words) [1] | effect on accumulation of epididymal fat and perinephric fat weight [2] | effect on the weight gain [2] | pancreatic lipase inhibitory activity [3] | effect on the GPDH activity [4] | effect on the fat accumulation (triglyceride accumulation) [4] | effect on liver triglyceride [5] | liver total cholesterol value [5] | lipolysis effect (glycerol release) [6] | lowering effect on the blood-triglyceride [7] | Weight (g) 4th day ([8]; 4th day, average ± standard error, n = 5) [g] | Difference in the weight compared to the control ([8]; four days) [g] | Weight increase ([8]; four days) [g]
1 | O=C(O)/C=C/c1ccc(O)c(O)c1 [Coffeic acid] | 100 (≈ 0.555 mM) | strong inhibitory activity of α-glucosidase | – | – | – | – | – | – | – | – | – | – | – | –
2 | O=C(/C=C/c1ccc(O)c(O)c1)O[C@@H]1C[C@](O)(C(=O)O)C[C@@H](O)[C@H]1O [Chlorogenic acid, chlorogenic acid] | – | strong inhibitory activity of α-glucosidase | slightly indicates a suppressive effect on the accumulation of the fat | do not have a sufficient suppressive effect on the weight gain | indicate a pancreatic lipase inhibitory activity | mild inhibitory effect on the GPDH activity | mild inhibitory effect on the fat accumulation | strong effect | almost the same as the value of the control group | mild lipolysis effect | lowering effect on the blood-triglyceride identical to the effect of synephrine | – | – | –
3 | O=C(O)[C@]1(O)C[C@@H](O)[C@@H](O)[C@H](O)C1 [Quinic acid, quinic acid] | >1000 | does not indicate the inhibitory activity | – | – | – | – | – | – | – | – | – | – | – | –
4 | c1cc2c(cc1[C@H]1OC[C@H]3[C@@H]1CO[C@@H]3c1ccc3c(c1)OCO3)OCO2 [Sesamine, sesamine] | – | – | – | – | – | – | – | – | – | – | – | 30.91 ± 1.79 | -0.83 | 3.55
5 | Cn1c(=O)c2c(ncn2C)n(C)c1=O [Caffeine, caffeine] | >1000 | does not indicate the inhibitory activity | slightly indicates a suppressive effect on the accumulation of the fat | do not have a sufficient suppressive effect on the weight gain | indicate a pancreatic lipase inhibitory activity | mild inhibitory effect on the GPDH activity | mild inhibitory effect on the fat accumulation | strong effect | almost the same as the value of the control group | – | strong lowering effect on the blood-triglyceride | – | – | –
